Consider 18 compounds from patent US20240182487A1, “MACROCYCLES AND THEIR USE” (BLOSSOMHILL THERAPEUTICS, INC., priority 2020, published 2024).

A word on the IC50: it is the concentration needed to halve the response being measured. A high value points to weaker potency.

In this assay the target is EGFR (Δ746-750) (Homo sapiens (Human), UniProt P00533, DEL746-750). Briefly: HotSpot radiometric kinase assay, EGFR Δ746-750. Format: biochemical. The settings on record: radiometric filter-binding, 10 μM ATP.
Sequence of EGFR (Δ746-750) (P00533 other isoform, or with tags, fused parts or gaps del 1-668/del 746-750 limits assumed): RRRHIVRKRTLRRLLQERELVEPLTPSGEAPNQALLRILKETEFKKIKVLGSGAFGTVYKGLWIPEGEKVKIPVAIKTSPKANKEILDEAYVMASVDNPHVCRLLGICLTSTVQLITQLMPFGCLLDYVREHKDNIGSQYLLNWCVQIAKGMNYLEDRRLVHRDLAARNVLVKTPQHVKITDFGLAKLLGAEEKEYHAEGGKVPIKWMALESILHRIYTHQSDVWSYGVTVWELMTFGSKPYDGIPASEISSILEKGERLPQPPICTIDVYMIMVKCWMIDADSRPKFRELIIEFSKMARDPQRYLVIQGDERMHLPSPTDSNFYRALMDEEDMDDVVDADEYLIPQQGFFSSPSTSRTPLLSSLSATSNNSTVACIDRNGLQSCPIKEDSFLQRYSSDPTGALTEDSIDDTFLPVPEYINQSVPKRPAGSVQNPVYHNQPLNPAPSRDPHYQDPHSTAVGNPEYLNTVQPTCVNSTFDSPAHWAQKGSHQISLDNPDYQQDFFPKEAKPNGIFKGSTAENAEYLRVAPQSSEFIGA
In turn, `COC(=O)c1ccc2c(c1)/C=C/c1n[nH]c3cnc(cc13)-c1cnn(C)c1OCCCO2` [Cpd. 68, methyl (11E)-1-methyl-19,20-dihydro-1H,8H,18H-10,7,4-(ethan[1]yl[1,2]diylidene)pyrazolo[3,4-f][1,5,9,12,13]benzodioxatriazacyclooctadecine-14-carboxylate] registered an IC50 of 93.3 nM.

As for `COC(=O)c1ccc2c(c1)/C=C/c1n[nH]c3cnc(cc13)-c1cnn(C)c1COCCO2` [Cpd. 75, methyl (11E)-1-methyl-1,18,19,21-tetrahydro-8H-10,7,4-(ethan[1]yl[1,2]diylidene)pyrazolo[3,4-f][1,4,9,12,13]benzodioxatriazacyclooctadecine-14-carboxylate], the IC50 came to 51 nM.

Take `Cc1nc2cc3c(n[nH]c13)/C=C/c1cc(F)ccc1OCCCOc1c-2cnn1C` [Cpd. 98, (11E)-14-fluoro-1,6-dimethyl-19,20-dihydro-1H,8H,18H-10,7,4-(ethan[1]yl[1,2]diylidene)pyrazolo[3,4-f][1,5,9,12,13]benzodioxatriazacyclooctadecine]: the IC50 is 836 nM.

Take `CN1CCC(CNC(=O)c2ccc3c(c2)/C=C/c2n[nH]c4cnc(cc24)-c2cnn(C)c2OCCCO3)CC1` [Cpd. 76, (11E)-1-methyl-N-[(1-methylpiperidin-4-yl)methyl]-19,20-dihydro-1H,8H,18H-10,7,4-(ethan[1]yl[1,2]diylidene)pyrazolo[3,4-f][1,5,9,12,13]benzodioxatriazacyclooctadecine-14-carboxamide]: the half-inhibitory concentration (IC50) came out at 2.2 nM.

Compound `CN1CCC(CNC(=O)c2ccc3c(c2)/C=C/c2n[nH]c4cnc(cc24)-c2cnn(C)c2COCCO3)CC1` [Cpd. 94, (11E)-1-methyl-N-[(1-methylpiperidin-4-yl)methyl]-1,18,19,21-tetrahydro-8H-10,7,4-(ethan[1]yl[1,2]diylidene)pyrazolo[3,4-f][1,4,9,12,13]benzodioxatriazacyclooctadecine-14-carboxamide] showed an IC50 of 17.6 nM.

Compound `COC(=O)c1ccc2c(c1)OCCCOc1c(cnn1C)-c1cc3c(n[nH]c3cn1)/C=C/2` [Cpd. 67, methyl (11E)-1-methyl-19,20-dihydro-1H,8H,18H-10,7,4-(ethan[1]yl[1,2]diylidene)pyrazolo[3,4-f][1,5,9,12,13]benzodioxatriazacyclooctadecine-15-carboxylate] gave an IC50 of 1530 nM. This IC50 lies about 87-fold higher than the previous one.

For the compound `Cn1ncc2c1OCCCOc1cc(C(=O)O)ccc1/C=C/c1n[nH]c3cnc-2cc13` [Cpd. 73, (11E)-1-methyl-19,20-dihydro-1H,8H,18H-10,7,4-(ethan[1]yl[1,2]diylidene)pyrazolo[3,4-f][1,5,9,12,13]benzodioxatriazacyclooctadecine-15-carboxylic acid], the IC50 was found to be 35.8 nM.

Consider `CN(C)CCCNC(=O)c1ccc2c(c1)/C=C/c1n[nH]c3cnc(cc13)-c1cnn(C)c1OCCCO2` [Cpd. 70, (11E)-N-[3-(dimethylamino)propyl]-1-methyl-19,20-dihydro-1H,8H,18H-10,7,4-(ethan[1]yl[1,2]diylidene)pyrazolo[3,4-f][1,5,9,12,13]benzodioxatriazacyclooctadecine-14-carboxamide], for which the IC50 was 2.9 nM.

Regarding `CCNC(=O)c1ccc2c(c1)OCCOCc1c(cnn1C)-c1cc3c(n[nH]c3cn1)/C=C/2` [Cpd. 84, (11E)-N-ethyl-1-methyl-1,18,19,21-tetrahydro-8H-10,7,4-(ethan[1]yl[1,2]diylidene)pyrazolo[3,4-f][1,4,9,12,13]benzodioxatriazacyclooctadecine-15-carboxamide], the IC50 was 240 nM.

In the case of `CN1CCC(NC(=O)c2ccc3c(c2)OCCCOc2c(cnn2C)-c2cc4c(n[nH]c4cn2)/C=C/3)CC1` [Cpd. 78, (11E)-1-methyl-N-(1-methylpiperidin-4-yl)-19,20-dihydro-1H,8H,18H-10,7,4-(ethan[1]yl[1,2]diylidene)pyrazolo[3,4-f][1,5,9,12,13]benzodioxatriazacyclooctadecine-15-carboxamide], the IC50 amounted to 5.3 nM.

On to `CNC(=O)c1ccc2c(c1)/C=C/c1n[nH]c3cnc(cc13)-c1cnn(C)c1OCCCO2` [Cpd. 86, (11E)-N,1-dimethyl-19,20-dihydro-1H,8H,18H-10,7,4-(ethan[1]yl[1,2]diylidene)pyrazolo[3,4-f][1,5,9,12,13]benzodioxatriazacyclooctadecine-14-carboxamide], for which the IC50 came to 15.6 nM.

With `Cn1ncc2c1OCCCOc1ccc(C(=O)N3CCCC3)cc1/C=C/c1n[nH]c3cnc-2cc13` [Cpd. 72, [(11E)-1-methyl-19,20-dihydro-1H,8H,18H-10,7,4-(ethan[1]yl[1,2]diylidene)pyrazolo[3,4-f][1,5,9,12,13]benzodioxatriazacyclooctadecin-14-yl](pyrrolidin-1-yl)methanone], the 50% inhibitory concentration (IC50) was 18.3 nM.

Compound `CN(C)CCCNC(=O)c1ccc2c(c1)/C=C/c1n[nH]c3cnc(cc13)-c1cnn(C)c1COCCO2` [Cpd. 91, (11E)-N-[3-(dimethylamino)propyl]-1-methyl-1,18,19,21-tetrahydro-8H-10,7,4-(ethan[1]yl[1,2]diylidene)pyrazolo[3,4-f][1,4,9,12,13]benzodioxatriazacyclooctadecine-14-carboxamide] yielded an IC50 of 19.7 nM. This IC50 and that of the compound before are within 1.5-fold of each other.

In turn, `CN1CC[C@H](NC(=O)c2ccc3c(c2)OCCCOc2c(cnn2C)-c2cc4c(n[nH]c4cn2)/C=C/3)C1` [Cpd. 88, (11E)-1-methyl-N-[(3S)-1-methylpyrrolidin-3-yl]-19,20-dihydro-1H,8H,18H-10,7,4-(ethan[1]yl[1,2]diylidene)pyrazolo[3,4-f][1,5,9,12,13]benzodioxatriazacyclooctadecine-15-carboxamide] yielded an IC50 of 24.6 nM.

`CN(C)CCNC(=O)c1ccc2c(c1)/C=C/c1n[nH]c3cnc(cc13)-c1cnn(C)c1COCCO2` [Cpd. 90, (11E)-N-[2-(dimethylamino)ethyl]-1-methyl-1,18,19,21-tetrahydro-8H-10,7,4-(ethan[1]yl[1,2]diylidene)pyrazolo[3,4-f][1,4,9,12,13]benzodioxatriazacyclooctadecine-14-carboxamide] returned an IC50 of 16.8 nM.

Take `CN1CCN(C(=O)c2ccc3c(c2)/C=C/c2n[nH]c4cnc(cc24)-c2cnn(C)c2COCCO3)CC1` [Cpd. 96, (4-methylpiperazin-1-yl)[(11E)-1-methyl-1,18,19,21-tetrahydro-8H-10,7,4-(ethan[1]yl[1,2]diylidene)pyrazolo[3,4-f][1,4,9,12,13]benzodioxatriazacyclooctadecin-14-yl]methanone]: the IC50 came to 740 nM.

For `CN1CCC(NC(=O)c2ccc3c(c2)/C=C/c2n[nH]c4cnc(cc24)-c2cnn(C)c2COCCO3)CC1` [Cpd. 93, (11E)-1-methyl-N-(1-methylpiperidin-4-yl)-1,18,19,21-tetrahydro-8H-10,7,4-(ethan[1]yl[1,2]diylidene)pyrazolo[3,4-f][1,4,9,12,13]benzodioxatriazacyclooctadecine-14-carboxamide], the IC50 came out at 13.6 nM.

As to `COC(=O)c1ccc2c(c1)OCCOCc1c(cnn1C)-c1cc3c(n[nH]c3cn1)/C=C/2` [Cpd. 69, methyl (11E)-1-methyl-1,18,19,21-tetrahydro-8H-10,7,4-(ethan[1]yl[1,2]diylidene)pyrazolo[3,4-f][1,4,9,12,13]benzodioxatriazacyclooctadecine-15-carboxylate], the 50% inhibitory concentration (IC50) amounted to 1000 nM. This IC50 lies about 74-fold higher than the previous one.
